The source of these data is US20240247080A1, “GLP1/GIP/NPY2 RECEPTOR TRIPLE AGONISTS” (Boehringer Ingelheim International GmbH, priority 2022, published 2024).

Like-named read-outs stand apart in the source and are kept apart here. Starred links: 1 amine or outer side, 2 acyl side, 3 side chain; linkers in the order of their positions; H or OH if unused. Non-standard residues stand in square brackets, D forms with d. Groups on a side chain read outwards from the residue. *: point of attachment. C20 diacid = O=C(O)CCCCCCCCCCCCCCCCCCC(=O)*; C18 diacid = O=C(O)CCCCCCCCCCCCCCCCC(=O)*; γGlu = O=C(O)[C@H](CCC(=O)[*:2])N[*:1]; εLys = N[C@@H](CCCCN[*:1])C(=O)[*:2]; AEEA = NCCOCCOCC(=O)O; Aib = CC(C)(N)C(=O)O

What all share (type): cell-based
Holding throughout (conditions): CreLuc reporter gene assay
A general note: In a reporter assay the amount or activity of a reporter protein is the signal.

One assay addresses T1, hGLP1R (Homo sapiens, UniProt P43220).
T1 construct: expressed in transfected cells; host or cells: HEK-293 cells carrying a CRE-luciferase reporter gene
As to the kind of experiment: hGLP1R CreLuc reporter gene assay in 0.5% and 100% plasma. The method in brief:
(§1)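 HEK cells (GLP-1R, NPY2R) or CHO cells (GIPR) carrying a CRE-luciferase reporter, incubated 4 h at 37 °C with peptides in HBSS/20 mM HEPES pH 7.4 plus 0.5% human plasma, or in 100% plasma. Luminescence read; EC50 from 8-point variable-slope sigmoid fits.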

A further assay deals with T2, hGIPR (Homo sapiens, UniProt P48546).
T2 construct: expressed in transfected cells; host or cells: CHO cells carrying a CRE-luciferase reporter gene
T2 sequence (P48546 22-466): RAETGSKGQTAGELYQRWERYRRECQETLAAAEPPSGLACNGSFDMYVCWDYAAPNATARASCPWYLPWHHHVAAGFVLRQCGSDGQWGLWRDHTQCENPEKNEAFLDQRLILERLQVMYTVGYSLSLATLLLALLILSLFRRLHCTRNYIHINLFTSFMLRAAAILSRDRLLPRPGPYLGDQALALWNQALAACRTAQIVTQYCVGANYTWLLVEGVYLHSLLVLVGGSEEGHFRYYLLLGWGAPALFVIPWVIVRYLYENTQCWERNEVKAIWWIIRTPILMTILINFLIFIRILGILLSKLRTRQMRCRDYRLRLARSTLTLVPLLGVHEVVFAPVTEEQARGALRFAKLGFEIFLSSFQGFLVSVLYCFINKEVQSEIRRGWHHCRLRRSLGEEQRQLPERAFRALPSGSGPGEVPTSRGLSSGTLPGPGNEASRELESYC
Briefly: hGIPR CreLuc reporter gene assay in 0.5% and 100% plasma. The method in brief:
as §1

For another assay, the target named is T3, hNPY2R (Homo sapiens, UniProt P49146).
T3 construct: expressed in transfected cells; host or cells: HEK-293 cells carrying a CRE-luciferase reporter gene
T3 sequence (P49146 1-381): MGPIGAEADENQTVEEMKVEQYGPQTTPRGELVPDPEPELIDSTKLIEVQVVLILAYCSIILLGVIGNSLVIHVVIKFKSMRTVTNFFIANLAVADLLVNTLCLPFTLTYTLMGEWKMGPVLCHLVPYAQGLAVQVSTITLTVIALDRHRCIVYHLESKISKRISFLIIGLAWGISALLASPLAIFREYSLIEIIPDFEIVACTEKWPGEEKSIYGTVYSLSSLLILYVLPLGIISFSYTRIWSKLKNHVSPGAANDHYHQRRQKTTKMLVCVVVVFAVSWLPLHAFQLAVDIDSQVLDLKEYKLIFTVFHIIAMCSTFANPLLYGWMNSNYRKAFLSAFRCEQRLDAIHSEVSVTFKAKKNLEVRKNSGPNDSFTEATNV
As to the kind of experiment: hNPY2R CreLuc reporter gene assay in 0.5% and 100% plasma. The gist of the method:
as §1

The mark [1] stands for this setting: 0.5% human plasma, read-out: hGLP1R 0.5% hP.
Where [2] appears, read: 0.5% human plasma, read-out: hGIPR 0.5% hP.
Where [3] appears, read: 100% human plasma, read-out: hGIPR 100% hP.
Where [4] appears, read: 0.5% human plasma, read-out: hNPY2R 0.5% hP.
Where [5] appears, read: 100% human plasma, read-out: hNPY2R 100% hP.

T1 sequence (P43220 24-463): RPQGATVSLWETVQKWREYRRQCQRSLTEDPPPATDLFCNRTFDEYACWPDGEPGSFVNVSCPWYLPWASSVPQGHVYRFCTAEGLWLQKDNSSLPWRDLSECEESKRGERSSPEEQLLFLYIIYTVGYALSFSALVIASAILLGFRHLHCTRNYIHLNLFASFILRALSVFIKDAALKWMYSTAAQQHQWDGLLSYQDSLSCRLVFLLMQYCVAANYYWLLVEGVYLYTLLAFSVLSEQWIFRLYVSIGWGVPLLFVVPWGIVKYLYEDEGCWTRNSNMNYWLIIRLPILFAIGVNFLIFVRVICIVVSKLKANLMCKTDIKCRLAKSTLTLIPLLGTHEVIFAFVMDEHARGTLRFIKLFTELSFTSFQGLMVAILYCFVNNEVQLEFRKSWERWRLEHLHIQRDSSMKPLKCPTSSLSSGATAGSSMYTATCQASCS

On to “H-Y[Aib]EGTFTSDYSI[Aib]LEKQAQ[Aib]AFVEWLIK([εLys-γGlu-γGlu-γGlu-γGlu-γGlu-γGlu-C20 diacid])GGPSSPASLRHYYNWLTRQRY-NH2 [Compound 95, Y-Aib-E-G-T-F-T-S-D-Y-S-I-Aib-L-E-K-Q-A-Q-Aib-A-F-V-E-W-L-I-K(1,3)-GGPSSPASLRHYYNWLTRQRY-NH2.C20DA-gGlu-gGlu-gGlu-gGlu-gGlu-gGlu-eLys(1,2)]”, for which the EC50 on hGLP1R (setting [1]) is 0.13 nM; at hGIPR (setting [2]) it was 0.13 nM; on hGIPR (setting [3]), 0.75 nM; at hNPY2R (setting [4]) it was 20.6 nM.

Turning to “H-Y[Aib]EGTFTSDYSI[Aib]LEKQAQ[Aib]AFVEWLIK([εLys-γGlu-γGlu-γGlu-γGlu-γGlu-γGlu-C20 diacid])GGPSSPESLRHYYNWLTRQRY-NH2 [Compound 73, Y-Aib-E-G-T-F-T-S-D-Y-S-I-Aib-L-E-K-Q-A-Q-Aib-A-F-V-E-W-L-I-K(1,3)-GGPSSPESLRHYYNWLTRQRY-NH2.C20DA-gGlu-gGlu-gGlu-gGlu-gGlu-gGlu-eLys(1,2)]”, the EC50 stood at 0.19 nM on hGLP1R (setting [1]); 4.76 nM at hGLP1R (100% human plasma, read-out: hGLP1R 100% hP); 0.11 nM on hGIPR (setting [2]); 1.61 nM at hGIPR (setting [3]); 107 nM at hNPY2R (setting [5]).

For the substance “H-Y[Aib]EGTFTSDYSI[Aib]LEKQAQ[Aib]AFVEWLIK([εLys-γGlu-γGlu-γGlu-γGlu-γGlu-γGlu-C20 diacid])GGPSSPQSLRHYYNWLTRQRY-NH2 [Compound 41, Y-Aib-E-G-T-F-T-S-D-Y-S-I-Aib-L-E-K-Q-A-Q-Aib-A-F-V-E-W-L-I-K(1,3)-GGPSSPQSLRHYYNWLTRQRY-NH2.C20DA-gGlu-gGlu-gGlu-gGlu-gGlu-gGlu-eLys(1,2)]”, the EC50 at hGLP1R (setting [1]) was 0.06 nM; on hGIPR (setting [2]), 0.07 nM; at hGIPR (setting [3]), 0.62 nM; on hNPY2R (setting [4]) it was 10.2 nM; at hNPY2R (setting [5]), 34.6 nM.

Take “H-Y[Aib]EGTFTSDYSI[Aib]LEKQAQ[Aib]AFVEWLIK([εLys-γGlu-γGlu-γGlu-γGlu-γGlu-γGlu-C20 diacid])GGPSSYESLRHYYNWLTRQRY-NH2 [Compound 50, Y-Aib-E-G-T-F-T-S-D-Y-S-I-Aib-L-E-K-Q-A-Q-Aib-A-F-V-E-W-L-I-K(1,3)-GGPSSYESLRHYYNWLTRQRY-NH2.C20DA-gGlu-gGlu-gGlu-gGlu-gGlu-gGlu-eLys(1,2)]”: the EC50 on hGLP1R (setting [1]) amounted to 0.13 nM; at hGIPR (setting [2]) it was 0.12 nM; on hNPY2R (setting [4]), 11.8 nM.

With “H-Y[Aib]EGTFTSDYSI[Aib]LEKQAQ[Aib]AFVEWLIK([εLys-γGlu-γGlu-γGlu-γGlu-γGlu-γGlu-C20 diacid])GGPSSYVSIRHYYNWLTRQRY-NH2 [Compound 9, Y-Aib-E-G-T-F-T-S-D-Y-S-I-Aib-L-E-K-Q-A-Q-Aib-A-F-V-E-W-L-I-K(1,3)-GGPSSYVSIRHYYNWLTRQRY-NH2.C20DA-gGlu-gGlu-gGlu-gGlu-gGlu-gGlu-eLys(1,2)]”, the EC50 stood at 0.46 nM on hGLP1R (setting [1]); 0.21 nM at hGIPR (setting [2]); 2.03 nM on hGIPR (setting [3]); 15.2 nM at hNPY2R (setting [4]); 18.9 nM on hNPY2R (setting [5]).

As for “H-Y[Aib]EGTFTSDYSI[Aib]LEKQAQ[Aib]AFVEWLIK([εLys-γGlu-γGlu-γGlu-γGlu-γGlu-γGlu-C20 diacid])GGPSSYVSLRHYYNWLTRQRY-NH2 [Compound 40, Y-Aib-E-G-T-F-T-S-D-Y-S-I-Aib-L-E-K-Q-A-Q-Aib-A-F-V-E-W-L-I-K(1,3)-GGPSSYVSLRHYYNWLTRQRY-NH2.C20DA-gGlu-gGlu-gGlu-gGlu-gGlu-gGlu-eLys(1,2)]”, the EC50 at hGLP1R (setting [1]) is 0.46 nM; at hGIPR (setting [2]) it was 0.48 nM; at hGIPR (setting [3]), 4.36 nM; at hNPY2R (setting [4]), 11.9 nM; on hNPY2R (setting [5]), 26.4 nM.

Turning to “H-Y[Aib]EGTFTSDYSI[Aib]LEKQAQ[Aib]AFVEWLIK([εLys-γGlu-γGlu-γGlu-γGlu-γGlu-γGlu-C20 diacid])GGPSTGASLRHYYNWLTRQRY-NH2 [Compound 244, Y-Aib-E-G-T-F-T-S-D-Y-S-I-Aib-L-E-K-Q-A-Q-Aib-A-F-V-E-W-L-I-K(1,3)-GGPSTGASLRHYYNWLTRQRY-NH2.C20DA-gGlu-gGlu-gGlu-gGlu-gGlu-gGlu-eLys(1,2)]”, the EC50 is 0.19 nM on hGLP1R (setting [1]), 0.32 nM on hGIPR (setting [2]) and 13.5 nM at hNPY2R (setting [4]).

For the substance “H-Y[Aib]EGTFTSDYSI[Aib]LEKQAQ[Aib]AFVEWLIK([εLys-γGlu-γGlu-γGlu-γGlu-γGlu-γGlu-C20 diacid])GGPSYGASLRHYYNWLTRQRY-NH2 [Compound 232, Y-Aib-E-G-T-F-T-S-D-Y-S-I-Aib-L-E-K-Q-A-Q-Aib-A-F-V-E-W-L-I-K(1,3)-GGPSYGASLRHYYNWLTRQRY-NH2.C20DA-gGlu-gGlu-gGlu-gGlu-gGlu-gGlu-eLys(1,2)]”, the EC50 came to 0.21 nM on hGLP1R (setting [1]); 0.19 nM at hGIPR (setting [2]); 1.64 nM at hGIPR (setting [3]); 15.3 nM on hNPY2R (setting [4]); 36.8 nM at hNPY2R (setting [5]).

As for “H-Y[Aib]EGTFTSDYSI[Aib]LEKQAQ[Aib]AFVEWLIK([εLys-γGlu-γGlu-γGlu-γGlu-γGlu-γGlu-C20 diacid])GGPSYYVSLRHYYNWLTRQRY-NH2 [Compound 80, Y-Aib-E-G-T-F-T-S-D-Y-S-I-Aib-L-E-K-Q-A-Q-Aib-A-F-V-E-W-L-I-K(1,3)-GGPSYYVSLRHYYNWLTRQRY-NH2.C20DA-gGlu-gGlu-gGlu-gGlu-gGlu-gGlu-eLys(1,2)]”, the EC50 on hGLP1R (setting [1]) came out at 1.6 nM; at hGIPR (setting [2]), 0.79 nM; on hNPY2R (setting [4]), 12.8 nM; at hNPY2R (setting [5]) it was 54.8 nM.

On to “H-Y[Aib]EGTFTSDYSI[Aib]LEKQAQ[Aib]AFVEWLIK([εLys-γGlu-γGlu-γGlu-γGlu-γGlu-γGlu-γGlu-C20 diacid])GGPSEGASLRHYYNWLTRQRY-NH2 [Compound 288, Y-Aib-E-G-T-F-T-S-D-Y-S-I-Aib-L-E-K-Q-A-Q-Aib-A-F-V-E-W-L-I-K(1,3)-GGPSEGASLRHYYNWLTRQRY-NH2.C20DA-gGlu-gGlu-gGlu-gGlu-gGlu-gGlu-gGlu-eLys(1,2)]”, for which the EC50 at hGLP1R (setting [1]) came to 0.17 nM; at hGIPR (setting [2]), 0.51 nM; at hGIPR (setting [3]), 2.43 nM; at hNPY2R (setting [4]) it was 14.3 nM; at hNPY2R (setting [5]), 36.8 nM.

For “H-Y[Aib]EGTFTSDYSI[Aib]LEKQAQ[Aib]AFVQWLIK([AEEA-AEEA-Glu-Glu-Glu-C18 diacid])GGPEEGASLRHYYNWLTRQRY-NH2 [Compound 188, Y-Aib-E-G-T-F-T-S-D-Y-S-I-Aib-L-E-K-Q-A-Q-Aib-A-F-V-Q-W-L-I-K(1,3)-GGPEEGASLRHYYNWLTRQRY-NH2.C18DA-E-E-E-OEG-OEG(1,2)]”, the figures for the EC50 on hGLP1R (setting [1]), at hGIPR (setting [2]) and at hNPY2R (setting [4]) were 0.15 nM, 0.12 nM and 16.9 nM, respectively.

For the substance “H-Y[Aib]EGTFTSDYSI[Aib]LEKQAQ[Aib]AFVQWLIK([AEEA-AEEA-Glu-Glu-Glu-Glu-C18 diacid])GGPEEGASLRHYYNWLTRQRY-NH2 [Compound 177, Y-Aib-E-G-T-F-T-S-D-Y-S-I-Aib-L-E-K-Q-A-Q-Aib-A-F-V-Q-W-L-I-K(1,3)-GGPEEGASLRHYYNWLTRQRY-NH2.C18DA-E-E-E-E-OEG-OEG(1,2)]”, the EC50 stood at 0.16 nM at hGLP1R (setting [1]), 0.28 nM on hGIPR (setting [2]), 18.7 nM at hNPY2R (setting [4]) and 115 nM at hNPY2R (setting [5]).
